# Patent US7947738B2, “Bicyclic γ-amino acid derivative” (Daiichi Sankyo Company, Ltd., priority 2007, dated 2011)
# Structures can show the parent of a compound that is named as a salt.
# Molecular target: T1, human Cacna2d1 (human calcium channel subunit α2δ1) (Homo sapiens, UniProt P54289)
# T1 construct: 293 cells were transfected with the human Cacna2d1 expression plasmid pRK/hCacna2d1 constructed in paragraph a); expressed in transfected cells; membrane fraction
# Test: Cacna2d1/GBP binding reaction inhibitory activity (3H-GBP binding to human Cacna2d1-expressing cell membrane fraction)
# Details: IC50 (nM), concentration inhibiting 50% of Cacna2d1/GBP binding, 3H-GBP 4.5 nM, 4° C.
# Protocol: 293 cells were transfected with the human Cacna2d1 expression plasmid pRK/hCacna2d1 constructed in paragraph a), and a cell line stably expressing human Cacna2d1 was obtained with human Cacna2d1 protein expression as an index. Specifically, 2×10^6 293 cells were inoculated onto a φ6 cm dish and cultured for 12 hours. Then, the cells were cotransfected with 5 μg of pRK/hCacna2d1 and 0.5 μg of a neomycin-resistant gene expression plasmid pSV2neo (Clontech) using a transfection reagent Lipofectamine Plus (Invitrogen Corp.) according to the protocol provided for the reagent.
# The human Cacna2d1-expressing 293 cells obtained in paragraph b) were cultured in large scale in DMEM (Invitrogen Corp.) supplemented with 10% fetal bovine serum (Cansera International, Inc.) and 500 μg/ml G418 (Invitrogen Corp.), and the cells were collected. A protease inhibitor (Complete EDTA free (Roche Applied Science)) was added in an amount recommended for the reagent to a binding assay buffer (10 mM MOPS (pH 7.4), 10 mM HEPES (pH 7.4), 100 mM NaCl) to prepare a membrane fraction preparation buffer. The collected cells were washed with the membrane fraction preparation buffer and then homogenized using an ultrasonicator. Then, the homogenate was centrifuged at 12,000 rpm at 4° C. for 1 hour using a centrifuge. The supernatant was discarded, and the precipitate was suspended in the membrane fraction preparation buffer. The procedure from the ultrasonication using a ultrasonicator to the suspension of the precipitate after centrifugation was further repeated three times, and the obtained suspension was used as a human Cacna2d1-expressing cell membrane fraction. The total level of proteins contained in the membrane fraction was calculated from UV absorbance at a wavelength of 280 nm.
# The human Cacna2d1-expressing cell membrane fraction and GBP labeled with a radioisotope ^3H (hereinafter, referred to as ^3H-GBP; Tocris Cookson Ltd.) were diluted with a binding assay buffer (10 mM MOPS (pH 7.4), 10 mM HEPES (pH 7.4), 100 mM NaCl) at a final concentration of 2.5 mg/ml in terms of the total protein level and a final ^3H-GBP concentration of 4.5 nM, respectively, to prepare 120 μl of a reaction solution, which was in turn left standing at 4° C. for 3 hours. This reaction product was added to wells of a filter plate (UniFilter 350 GF/B (Whatman)) and filtered through the filter. Then, a washing procedure involving the addition of 350 μl of a binding assay buffer (10 mM MOPS (pH 7.4), 10 mM HEPES (pH 7.4), 100 mM NaCl) and filtration through the filter was repeated three times. The filter plate was thoroughly dried, and the underside was sealed. After addition of 50 μl of Microscint 20 (PerkinElmer Inc.), the upper surface was also sealed, and radiation derived from the radioisotope ^3H remaining on the filter was counted using TopCount (PerkinElmer Inc.). From the obtained value, a value obtained by adding unlabeled GBP (SIGMA-ALDRICH INC.) at a final concentration of 20 μM to the present assay was subtracted as that derived from nonspecific adsorption, and the obtained value was used as the specific binding level of ^3H-GBP to Cacna2d1 (unit: “count”).
# Each test compound was added at various concentrations to the Cacna2d1/GBP binding reaction detection assay constructed in paragraph a), and the binding level was measured by the method described in paragraph a). Then, with the Cacna2d1/GBP specific binding level obtained by the addition of the compound at a concentration of x nM defined as “binding level [x]” and the Cacna2d1/GBP binding inhibitory rate thereagainst defined as “inhibitory rate [x]”, the inhibitory rate (%) was determined based on the following equation: Inhibitory rate [x](%)=(1−(binding level [x]/binding level))×100, wherein the binding level refers to the binding level of ^3H-GBP obtained without the addition of the compound.
# The inhibitory rate was plotted against the concentration.
# T1 sequence (P54289 25-1091 isoform P54289-2 limits assumed): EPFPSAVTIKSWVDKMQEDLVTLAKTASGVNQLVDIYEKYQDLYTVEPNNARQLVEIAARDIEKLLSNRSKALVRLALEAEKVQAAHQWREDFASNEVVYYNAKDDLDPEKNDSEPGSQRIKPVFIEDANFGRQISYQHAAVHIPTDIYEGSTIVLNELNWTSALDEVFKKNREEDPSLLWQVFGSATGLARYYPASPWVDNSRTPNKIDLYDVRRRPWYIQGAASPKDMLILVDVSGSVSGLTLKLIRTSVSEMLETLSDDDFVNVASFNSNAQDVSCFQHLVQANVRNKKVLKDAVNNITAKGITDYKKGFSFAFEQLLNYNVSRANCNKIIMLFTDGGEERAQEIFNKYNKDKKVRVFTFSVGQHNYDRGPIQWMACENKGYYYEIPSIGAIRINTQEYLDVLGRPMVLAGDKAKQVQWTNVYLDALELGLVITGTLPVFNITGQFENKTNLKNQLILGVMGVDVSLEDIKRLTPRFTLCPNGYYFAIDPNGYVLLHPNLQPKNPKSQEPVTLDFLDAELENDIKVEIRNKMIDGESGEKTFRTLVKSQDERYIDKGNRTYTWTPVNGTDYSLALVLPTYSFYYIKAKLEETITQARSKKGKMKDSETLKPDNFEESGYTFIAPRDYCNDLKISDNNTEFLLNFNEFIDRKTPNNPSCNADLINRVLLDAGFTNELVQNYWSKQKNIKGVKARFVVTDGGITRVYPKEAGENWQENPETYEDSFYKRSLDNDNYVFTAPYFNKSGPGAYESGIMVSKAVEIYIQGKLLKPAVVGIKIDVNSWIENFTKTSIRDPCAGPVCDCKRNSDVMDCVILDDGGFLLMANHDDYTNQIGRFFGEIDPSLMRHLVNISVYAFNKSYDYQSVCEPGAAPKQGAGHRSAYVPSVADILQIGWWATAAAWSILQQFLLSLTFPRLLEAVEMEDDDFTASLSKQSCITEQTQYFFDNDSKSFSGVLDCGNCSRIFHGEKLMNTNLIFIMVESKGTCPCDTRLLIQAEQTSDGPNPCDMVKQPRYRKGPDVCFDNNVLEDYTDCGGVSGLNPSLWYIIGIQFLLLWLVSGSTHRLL
row,SMILES,IC50 [nM]
1,"NC[C@]1(CC(=O)O)C[C@H]2CC=C[C@H]21 [Example 2, [(1R,5S,6S)-6-(aminomethyl)bicyclo[3.2.0]hept-3-en-6-yl]acetic acid]",27
2,"NC[C@@]1(CC(=O)O)C[C@@H]2CC(C3CCCC3)=C[C@@H]21 (racemic) [Example 14, (±)-[(1S,5R,6R)-6-aminomethyl-3-cyclopentylbicyclo[3.2.0]hept-3-en-6-yl]acetic acid]",55
3,"CCC1=C[C@@H]2[C@H](C1)C[C@]2(CN)CC(=O)O (single isomer, unassigned) [Example 21]",14
4,"CC1=C[C@H]2[C@@H](C1)C[C@@]2(CN)CC(=O)O (racemic) [Example 7, (±)-[(1S,5R,6R)-6-aminomethyl-3-methylbicyclo[3.2.0]hept-3-en-6-yl]acetic acid]",36
5,"CC1C=C[C@@H]2[C@H]1C[C@@]2(CN)CC(=O)O (mixture of isomers) [Example 17, (±)-[(1S,5R,6R)-6-aminomethyl-2-methylbicyclo[3.2.0]hept-3-en-6-yl]acetic acid]",120
6,"C[C@]12C=CC[C@H]1C[C@]2(CN)CC(=O)O (racemic) [Example 16, (±)-[(1S,5R,6S)-6-aminomethyl-5-methylbicyclo[3.2.0]hept-3-en-6-yl]acetic acid]",65
7,"CCC1=C[C@H]2[C@@H](C1)C[C@@]2(CN)CC(=O)O (racemic) [Example 8, (±)-[(1S,5R,6R)-6-aminomethyl-3-ethylbicyclo[3.2.0]hept-3-en-6-yl]acetic acid]",28
8,"CCC1=C[C@@H]2[C@H](C1)C[C@]2(CN)CC(=O)O [Example 31, [(1R,5S,6S)-6-(aminomethyl)-3-ethylbicyclo[3.2.0]hept-3-en-6-yl]acetic acid benzenesulfonate]",14
9,"NC[C@@]1(CC(=O)O)C[C@@H]2CC=C[C@@H]21 (racemic) [Example 1, (±)-[(1S,5R,6R)-6-(aminomethyl)bicyclo[3.2.0]hept-3-en-6-yl]acetic acid]",51
10,"CC1=C(C)[C@H]2[C@@H](C1)C[C@@]2(CN)CC(=O)O (racemic) [Example 20, (±)-[(1S,5R,6R)-6-aminomethyl-3,4-dimethylbicyclo[3.2.0]hept-3-en-6-yl]acetic acid p-toluenesulfonate]",100
11,"CCC1=C[C@H]2[C@@H](C1)C[C@@]2(CN)CC(=O)O (single isomer, unassigned) [Example 23]",41
12,"Cl.NC[C@]1(CC(=O)O)C[C@H]2CC=C[C@H]21 [Example 6, [(1R,5S,6S)-6-(aminomethyl)bicyclo[3.2.0]hept-3-en-6-yl]acetic acid benzenesulfonate]",26
13,"CSCC1=C[C@H]2[C@@H](C1)C[C@@]2(CN)CC(=O)O (racemic) [Example 24, (±)-{(1R,5R,6R)-6-aminomethyl-3-[(methylthio)methyl]bicyclo[3.2.0]hept-3-en-6-yl}acetic acid]",85
14,"CCC(C)C1=CC2C(C1)CC2(CN)CC(=O)O (mixture of isomers) [Example 13, (±)-[(1S,5R,6R)-6-aminomethyl-3-sec-bicyclo[3.2.0]hept-3-en-6-yl]acetic acid]",200
15,"CCC1=C[C@@H]2[C@H](C1)C[C@]2(CN)CC(=O)O [Example 22, [(1R,5S,6S)-6-aminomethyl-3-ethylbicyclo[3.2.0]hept-3-en-6-yl]acetic acid p-toluenesulfonate]",10
16,"CCCC1=C[C@H]2[C@@H](C1)C[C@@]2(CN)CC(=O)O (racemic) [Example 9, (±)-[(1S,5R,6R)-6-aminomethyl-3-propylbicyclo[3.2.0]hept-3-en-6-yl]acetic acid]",32
17,"CCCCC1=C[C@H]2[C@@H](C1)C[C@@]2(CN)CC(=O)O (racemic) [Example 10, (±)-[(1S,5R,6R)-6-aminomethyl-3-butylbicyclo[3.2.0]hept-3-en-6-yl]acetic acid]",28
18,"CC(C)C1=C[C@H]2[C@@H](C1)C[C@@]2(CN)CC(=O)O (racemic) [Example 11, (±)-[(1S,5R,6R)-6-aminomethyl-3-isopropylbicyclo[3.2.0]hept-3-en-6-yl]acetic acid]",89
19,"CC(C)CC1=C[C@H]2[C@@H](C1)C[C@@]2(CN)CC(=O)O (racemic) [Example 12, (±)-[(1S,5R,6R)-6-aminomethyl-3-isobutylbicyclo[3.2.0]hept-3-en-6-yl]acetic acid]",32
20,"NC[C@]1(CC(=O)O)C[C@H]2CC=C[C@H]21 [Example 5, [(1R,5S,6S)-6-(aminomethyl)bicyclo[3.2.0]hept-3-en-6-yl]acetic acid hydrochloride]",24
21,"C=CCC1=C[C@H]2[C@@H](C1)C[C@@]2(CN)CC(=O)O (racemic) [Example 15, (±)-[(1S,5R,6R)-6-aminomethyl-3-allylbicyclo[3.2.0]hept-3-en-6-yl]acetic acid]",73

# Same assay, conditions: concentration inhibiting 50% of Cacna2d1/GBP binding, 3H-GBP 4.5 nM, 4° C., read-out: IC50
row,SMILES,IC50 [nM]
1,"CC(=O)OCC1=C[C@H]2[C@@H](C1)C[C@@]2(CN)CC(=O)O (racemic) [Example 18, (±)-[(1R,5R,6R)-3-(acetoxymethyl)-6-(aminomethyl)bicyclo[3.2.0]hept-3-en-6-yl]acetic acid]",670

# System: mice suffering from mechanical hyperalgesia
# Test: Mechanical hyperalgesia assay (von Frey filament pain score)
# Type: in vivo
# Details: oral administration, dose that offers 50% improvement relative to the pain score of vehicle-administered group
# Protocol: In the present invention, mice suffering from mechanical hyperalgesia were used in evaluation.
# The mice were acclimatized for 30 minutes in a plastic cage for measurement. Then, the test compound was orally administered to the mice, which were in turn evaluated for mechanical hyperalgesia at a measurement time predetermined by a person in charge of the test. The evaluation of mechanical hyperalgesia was conducted by a partial modification of the method of Takasaki et al. (Pain 86 95-101, 2000) to confirm the effect of the test compound on mechanical hyperalgesia. Specifically, mechanical hyperalgesia was evaluated by assessing, based on scores according to the following criteria, behavior induced by pressing 1.4 g of von Frey filament onto the sole of the animal:
# 0: no response, 1: withdrawal from von Frey filament, and 2: shaking or licking of the hind paw immediately after the stimulation.
# In one measurement, 6 stimulations were given to the mice, and the total score was used as a pain score.
# The test compound was evaluated by calculating ID50, which is the dose of the compound that offers 50% improvement relative to the pain score of a vehicle-administered group.
row,SMILES,ID50 [mg/kg]
1,"NC[C@]1(CC(=O)O)C[C@H]2CC=C[C@H]21 [Example 2, [(1R,5S,6S)-6-(aminomethyl)bicyclo[3.2.0]hept-3-en-6-yl]acetic acid]",10.4

# System: not given
# Test: not given
# Details: not given
row,SMILES,melting point [°C]
1,CCC1=C[C@H]2[C@@H](C1)C[C@@]2(CNO)CC(=O)O.Cl (racemic),98 to 99
2,"Cl.NC[C@]1(CC(=O)O)C[C@H]2CC=C[C@H]21 [Example 6, [(1R,5S,6S)-6-(aminomethyl)bicyclo[3.2.0]hept-3-en-6-yl]acetic acid benzenesulfonate]",161 to 162

# System: postherpetic neuralgia
# Test: not given
# Details: patients' own evaluations; Non-Patent Document 3; cited from earlier work
row,SMILES,efficacy in the treatment of postherpetic neuralgia
1,NCC1(CC(=O)O)CCCCC1 [gabapentine],approximately 60%

# System: painful diabetic neuropathy
# Test: not given
# Details: patients' own evaluations; Non-Patent Document 4; cited from earlier work
row,SMILES,efficacy in the treatment of painful diabetic neuropathy
1,CC(C)C[C@H](CN)CC(=O)O [pregabalin],approximately 50%
